The values that follow come from article PMC8302598, “Rapid discovery of self-assembling peptides with one-bead one-compound peptide library” (Nature Communications, 2021).

Data set [1] is described as follows: Self-assembly of resynthesized soluble pentapeptides. The class given is physicochemical. Particulars: self-assembly under aqueous environment. The source says:
Once the screening method has been validated with our model KLVFF peptide, a totally random pentapeptide library with 19[5] permutations (cysteine was omitted from the library) was constructed using our previously published methods (Supplementary Fig. 3)[23]. Again, TentaGel S resin (loading of 0.31 mmol/g) was used as the solid support. The pentapeptides in the library were N-terminally capped with NBD. […] The positive bead with an intense fluorescent signal (pointed with a solid arrow) was noted. The rest of the beads were considered negative or weak positive beads. From a total of approximately 100 000 beads screened, we selected a total of eight strongest fluorescent positive beads and four dark beads as negative beads. The peptides were then resynthesized in soluble form and purified by high-performance liquid chromatography (HPLC) for testing (Supplementary Figs. 4–12). The amino acid sequences of the eight self-assembling pentapeptides are FTISD, ITSVV, YFTEF, ISDNL, LDFPI, FAGFT, FGFDP, and FFVDF. Not unexpectedly, of the 40 amino acids in these eight pentapeptides, 50% are hydrophobic residues, predominated by Phe (11 Phe, 4 Ile, 3 Val, and 2 Leu). For the remaining 20 amino acids, six are acidic residues (5 Asp and 1 Glu) and seven are neutral and hydrophilic (4 Thr and 3 Ser). The rest are 2 Pro, 2 Gly, 1 Tyr, 1 Asn, and 1 Ala. All eight peptides have at least two hydrophobic residues. Six out of the eight peptides have one negatively charged residue (Asp or Glu). The remaining two peptides are neutral. […] For the Pro containing pentapeptides, LDFPI and FGFDP, the Pro residue, which promotes peptide turns, resides at the fourth and fifth positions, but not in the middle. Not unexpectedly, all the four randomly selected negative non-assembling peptides (RITTR, PLVKA, PFTTR, and QIMRW) have very different sequences, and contain at least one positive charged amino acid.
To estimate the propensity of the identified peptides to self-assemble, the critical micelle concentrations (CMC) of the eight positive peptides and four negative peptides were determined, and the results are shown in Table 1 and Supplementary Figs. 13, 14. The CMC of all the eight positive peptides were detectable and found to range between 8.4 and 14.8 μM, indicating the propensity for these peptides to self-assemble under aqueous environment. […] Hydrophobicity of peptides can be predicted by the value of GRAVY[28] with more negative value for more hydrophilic peptides. Of the four negative assembling peptides, two have a negative GRAVY value. […] Experimental testing, such as the screening strategy described in this work, is needed. This is because multiple factors, including hydrophobicity, hydrogen-bonding, electrostatic interactions, and positions of each residue within the peptides, all contribute to the assembling and final morphology of the self-assembled nano-structure. […]

In data set [2] the test system is HeLa cells. In words: CCK-8 cell viability assay. The class given is cell-based. The settings on record: incubation 24 and 72 h, n=3. The protocol:
(§1) Finally, we examined the biological effects and cellular distribution of the eight self-assembling peptides on HeLa cells. […] In order to observe the nanomaterials under fluorescent microscopy, each peptide preparation was spiked with 3% of the same peptide N-terminally labeled with FITC, and then added to HeLa cells at a final concentration of 40 μM. […] After 4 h of incubation with the peptide assemblies, the cells were observed under a fluorescent microscope (Figs. 4c, d and Supplementary 22). […] It is important to note that LDFPI nanoparticle was small (8 nm diameter) even after 4 h incubation. Its small size may in part explain its ability to pass through the nuclear pore complexes[32],[33]. […] To evaluate the cell uptake mechanism of peptide assemblies (YFTEF, ISDNL, and FGFDP) into the cytoplasm, we treated the cells at 4 °C or with various endocytosis inhibitors (Supplementary Fig. 23).
TentaGel S Resin was purchased from Rapp Polymere (Germany, loading 0.31 mmol/g). 9-Fluorenylmethoxycarbonyl (Fmoc)-protected amino acids, 2-(1H-benzotriazole-1-yl)-1,1,3,3- tetramethyluronium hexafluoro-phosphate (HBTU), and Wang resin were obtained from GL Biochem (China). Trifluoroacetic acid (TFA), fluorescein isothiocyanate (FITC), N-methyl morpholine (NMM), piperidine, and N,N′-dimethylformamide (DMF) were all from Beijing Chemical Plant (China). 1,2-Ethanedithiol (EDT) was purchased from Alfa Aesar (USA). Dimethyl sulfoxide (DMSO) was purchased from Aldrich Chemical Co. and used without further purification. Cyanogen bromide (CNBr) was from J&K Chemical (China). The HeLa cell lines were received from the Cell Culture Center of the Institute of Basic Medical Sciences, Chinese Academy of Medical Sciences (Beijing, China). Cell culture medium and fetal bovine serum were from WisentInc (Multicell, WisentInc, St. Bruno. The cell counting kit-8 assay (CCK-8) (Beyotime Institute of Biotechnology, China) was used. Hela cells were maintained Dulbecco’s modified eagle’s medium (DMEM) with 10% fetal bovine serum and 1% penicillin. All cells were cultured in a humidified atmosphere containing 5% CO2 at 37 °C.
Supplementary Figure 21 . a-h. CCK-8 cell viability assay for 8 pentapeptides (FTISD, ITSVV, YFTEF, ISDNL , LDFPI, FAGFT,
FGFDP, FFVDF) after incubation with HeLa cells for 24 and 72 h.
Standard Deviatio n (n=3).
(1 picture or pasted object on this page, not shown here)
A general note: Tetrazolium dyes change colour on reduction, which living cells bring about.

In data set [3] the test system is HeLa cells. In words: Cellular uptake and distribution of FITC-labeled peptide assemblies (fluorescence/confocal microscopy). The class given is cell-based. The settings on record: 40 μM (methods: 50 μM); for Cellular distribution of peptide assemblies: live HeLa cells, 3% FITC-labeled peptide, 4 h, Lyso-Tracker Red, Hoechst; for Cellular uptake: HeLa cells, 3% of peptide N-terminally FITC-labeled, 4 h incubation, fluorescence microscope. On the procedure:
as §1
Hela cell line was purchased from cell culture center of Institute of Basic Medical Sciences, Chinese Academy of Medical Sciences (Beijing, China). Hela cells cultured with pentapeptide nanomaterials (50 μM) were imaged using a Zeiss LSM710 confocal laser scanning microscope (Jena, Germany). The Hela cells were seeded in complete DMEM in a humidified atmosphere with 5% CO2 and then cultured at 37 °C overnight. Then, 1 mL of serum-free fresh medium containing pentapeptide (50 μM) was used for replacing the medium, and the cells were cultured for 4 h and washed with PBS three times before being imaged using a Zeiss LSM710 confocal laser scanning microscope with a 40× objective lens. The cell lines had been authenticated utilizing short tandem repeat DNA profiling. All cells were tested negative for cross-contamination of other human cells and mycoplasma contamination.
Supplementary Figure 22. Confocal microscopy of HeLa cells after incubation with FITC-labeled pentapeptide assemblies (from left to right: FT ISD, IT SVV, Y FT E F, ISDNL , L D FP I, FAG FT, FG FDP, FFVD F ) for 4 h; peptide concentration used was 50 μM. 3% of the assembled peptides was N-terminally labeled with FITC.
Supplementary Figure 23 . Cell uptake pathway analysis for FITC-labeled pentapeptide assemblies YFTEF, ISDNL and […]. a) CLSM images of HeLa cells incubated with pentapeptides (50 μ M ) at di fferent temperatures (37 or 4 °C) and in the presence of various endocytosis inhibitors, such as amiloride (2 mM), M-β-CD (5 mM), and chlorpromazine (50 μM). The scale bar is 10 μm. b) Relevant quantitative analysis of images from ‘a’. 3% of the assembled peptides was N-terminally labeled with FITC, E rror ba rs represent Standard Deviation (n=3). […]

“Also recorded” adds a separate entry of the source.

As to “ITSVV [self-assembling pentapeptide identified from OBOC library]”, the Assembly entry in data set [1] is listed as “Yes”. For the same substance, in the data set with HeLa cells [2], the “Cell toxicity (CCK-8 cell viability)” value is “No cell toxicity was observed”. The “Cellular distribution of peptide assemblies” value (“Cellular distribution” below) with HeLa cells [3] is “localized on the cell membrane; also recorded: staining of the cell membrane and minor staining of the cytoplasm”.

In the case of “ISDNL [self-assembling pentapeptide identified from OBOC library]”, in data set [1], the Assembly result was “Yes”. The “Cell toxicity (CCK-8 cell viability)” value in the data set with HeLa cells [2] was “No cell toxicity was observed”. For the same substance, in the data set with HeLa cells [3], the Cellular uptake entry is recorded as “Obvious cellular uptake” and the “Cellular distribution” value is given as “distributed inside the lysosomes throughout the cytoplasm; also recorded: distribute only to the cytoplasm, in granular forms”.

In the case of “YFTEF [self-assembling pentapeptide identified from OBOC library]”, the Assembly entry in data set [1] is reported as “Yes”. Further, the “Cell toxicity (CCK-8 cell viability)” value in the data set with HeLa cells [2] is “No cell toxicity was observed”. Also, in the data set with HeLa cells [3], the Cellular uptake result is “Obvious cellular uptake” and the “Cellular distribution” value is listed as “distributed throughout the cytoplasm but not the nucleus”.

Turning to “FTISD [self-assembling pentapeptide identified from OBOC library]”, in data set [1], the Assembly entry is reported as “Yes”. Moreover, in the data set on HeLa cells [2], the “Cell toxicity (CCK-8 cell viability)” value is on record as “No cell toxicity was observed”. Further, the “Cellular distribution” value in the data set with HeLa cells [3] is “stained both the cell membrane and cytoplasm”.

Turning to “FGFDP [self-assembling pentapeptide identified from OBOC library]”, the Assembly result in data set [1] is reported as “Yes”. For the same substance, the “Cell toxicity (CCK-8 cell viability)” value in the data set with HeLa cells [2] was “No cell toxicity was observed”. Moreover, in the data set with HeLa cells [3], the Cellular uptake result is on record as “Obvious cellular uptake” and the “Cellular distribution” value was “distribute only to the cytoplasm, in granular forms”.

For “LDFPI [self-assembling pentapeptide identified from OBOC library]”, in data set [1], the Assembly entry is given as “Yes”. In the data set on HeLa cells [2], the “Cell toxicity (CCK-8 cell viability)” value is “No cell toxicity was observed”. Besides, in the data set with HeLa cells [3], the Cellular uptake entry is on record as “Obvious cellular uptake”; the “Cellular distribution” value was “localized to the nucleus and perinuclear areas”.

On to “FFVDF [self-assembling pentapeptide identified from OBOC library, forms nanofibers]”, for which the Assembly entry in data set [1] is given as “Yes”. For the same substance, in the data set on HeLa cells [2], the “Cell toxicity (CCK-8 cell viability)” value is given as “No cell toxicity was observed”. Also, the “Cellular distribution” value with HeLa cells [3] is given as “formed aggregates outside the cell; also recorded: formed some fluorescent aggregates outside the cells”.

Take “FAGFT [self-assembling pentapeptide identified from OBOC library]”: the Assembly entry in data set [1] is given as “Yes”. Also, the “Cell toxicity (CCK-8 cell viability)” value with HeLa cells [2] is “No cell toxicity was observed”. In addition, in the data set with HeLa cells [3], the Cellular uptake entry is given as “Obvious cellular uptake” and the “Cellular distribution” value is “mainly confine to the cytoplasm”.
